Experimental findings from PubChem BioAssay (NCI) are described below.

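Protocol summary: plate cells (96-well), add compound at 5 concentrations, incubate 48 h, interpolate endpoints linearly. At the TGI there is no net growth.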 Where only a bound is given, the exact number is not on record here.

One assay concerns KM20L2 colon. The experiment in a line: NCI tumour cell line growth inhibition, 48 h.
As for `CC#C[P+](c1ccccc1)(c1ccccc1)c1ccccc1`, the TGI was determined as 21.3 µM.

In turn, `CCCC(O)C(NC(=O)CCl)C(=O)O` (stereo unspecified) displayed a TGI above 100 µM.

With `COc1cc(/C=C/C(=O)O)ccc1C(=O)OCc1ccccc1`, the TGI is above 100 µM.

Compound `O=C(CC(=O)c1ccccc1)CC(O)(c1ccccc1)c1ccccc1` displayed a TGI of 19.5 µM.

`Cc1cccc(C(C)C)c1NC(=O)CC1Sc2ccccc2NC1=O` (stereo unspecified) showed a TGI above 100 µM.

On to `COc1cccc2c1C(=O)c1c(O)c3c(c(O)c1C2=O)C[C@@](O)(C(=O)CO)C[C@@H]3OC1CC(N)C(OC)C(C)O1` (stereo partly specified), for which the TGI is 4.83 µM.

`COc1cc2c(cc1O)C1C(O)C(O)C=C3CCN(C2)C31` (stereo unspecified) yielded a TGI of 18.3 µM.

`CC(C)=CCc1c(O)ccc2ccc(=O)oc12` came in with a TGI above 100 µM.

A further assay concerns DMS 114 small cell lung. Briefly: NCI tumour cell line growth inhibition, 48 h.
Consider `CC#C[P+](c1ccccc1)(c1ccccc1)c1ccccc1`, for which the TGI is 9.95 µM.

Compound `CCCC(O)C(NC(=O)CCl)C(=O)O` (stereo unspecified) showed a TGI above 100 µM.

On to `COc1cc(/C=C/C(=O)O)ccc1C(=O)OCc1ccccc1`, for which the TGI is above 100 µM.

In turn, `O=C(CC(=O)c1ccccc1)CC(O)(c1ccccc1)c1ccccc1` had a TGI of 5.73 µM.

`Cc1cccc(C(C)C)c1NC(=O)CC1Sc2ccccc2NC1=O` (stereo unspecified) had a TGI of 85 µM.

Consider `COc1cc2c(cc1O)C1C(O)C(O)C=C3CCN(C2)C31` (stereo unspecified), for which the TGI came to 4.33 µM.

In turn, `CC(C)=CCc1c(O)ccc2ccc(=O)oc12` had a TGI of 93.6 µM.

For another assay, the system named is LXFL 529 NSCLC. The experiment in a line: NCI tumour cell line growth inhibition, 48 h.
As for `CC#C[P+](c1ccccc1)(c1ccccc1)c1ccccc1`, the TGI was 12.6 µM.

As for `O=C(CC(=O)c1ccccc1)CC(O)(c1ccccc1)c1ccccc1`, the TGI is 17 µM.

Turning to `Cc1cccc(C(C)C)c1NC(=O)CC1Sc2ccccc2NC1=O` (stereo unspecified), the TGI was above 100 µM.

As for `COc1cccc2c1C(=O)c1c(O)c3c(c(O)c1C2=O)C[C@@](O)(C(=O)CO)C[C@@H]3OC1CC(N)C(OC)C(C)O1` (stereo partly specified), the TGI is 0.432 µM.

In turn, `COc1cc2c(cc1O)C1C(O)C(O)C=C3CCN(C2)C31` (stereo unspecified) came in with a TGI of 34.9 µM.

Another assay deals with SN12K1 renal. Briefly: NCI tumour cell line growth inhibition, 48 h.
On to `CCCC(O)C(NC(=O)CCl)C(=O)O` (stereo unspecified), for which the TGI was above 100 µM.

Consider `COc1cc(/C=C/C(=O)O)ccc1C(=O)OCc1ccccc1`, for which the TGI is above 100 µM.

The compound `CC(C)=CCc1c(O)ccc2ccc(=O)oc12` displayed a TGI above 100 µM.

The next assay has as its system DLD-1 colon. Briefly: NCI tumour cell line growth inhibition, 48 h.
For the compound `CC#C[P+](c1ccccc1)(c1ccccc1)c1ccccc1`, the TGI came to 16.7 µM.

`CCCC(O)C(NC(=O)CCl)C(=O)O` (stereo unspecified) gave a TGI above 100 µM.

Take `COc1cc(/C=C/C(=O)O)ccc1C(=O)OCc1ccccc1`: the TGI was above 100 µM.

As for `O=C(CC(=O)c1ccccc1)CC(O)(c1ccccc1)c1ccccc1`, the TGI was 26.6 µM.

The compound `Cc1cccc(C(C)C)c1NC(=O)CC1Sc2ccccc2NC1=O` (stereo unspecified) returned a TGI above 100 µM.

Compound `COc1cccc2c1C(=O)c1c(O)c3c(c(O)c1C2=O)C[C@@](O)(C(=O)CO)C[C@@H]3OC1CC(N)C(OC)C(C)O1` (stereo partly specified) registered a TGI of 3.37 µM.

For `COc1cc2c(cc1O)C1C(O)C(O)C=C3CCN(C2)C31` (stereo unspecified), the TGI amounted to 14.2 µM.

In turn, `CC(C)=CCc1c(O)ccc2ccc(=O)oc12` returned a TGI above 100 µM.

The subject of another assay is RXF-631 renal. The experiment in a line: NCI tumour cell line growth inhibition, 48 h.
As to `Cc1cccc(C(C)C)c1NC(=O)CC1Sc2ccccc2NC1=O` (stereo unspecified), the TGI is above 100 µM.

The compound `COc1cccc2c1C(=O)c1c(O)c3c(c(O)c1C2=O)C[C@@](O)(C(=O)CO)C[C@@H]3OC1CC(N)C(OC)C(C)O1` (stereo partly specified) displayed a TGI of 0.747 µM.

`COc1cc2c(cc1O)C1C(O)C(O)C=C3CCN(C2)C31` (stereo unspecified) yielded a TGI of 28.2 µM.

Another assay concerns M19-MEL melanoma. The experiment in a line: NCI tumour cell line growth inhibition, 48 h.
Take `CC#C[P+](c1ccccc1)(c1ccccc1)c1ccccc1`: the TGI turned out to be 11.8 µM.

`CCCC(O)C(NC(=O)CCl)C(=O)O` (stereo unspecified): the TGI was above 100 µM.

Compound `COc1cc(/C=C/C(=O)O)ccc1C(=O)OCc1ccccc1` displayed a TGI above 100 µM.

`O=C(CC(=O)c1ccccc1)CC(O)(c1ccccc1)c1ccccc1` registered a TGI of 13.9 µM.

As for `COc1cccc2c1C(=O)c1c(O)c3c(c(O)c1C2=O)C[C@@](O)(C(=O)CO)C[C@@H]3OC1CC(N)C(OC)C(C)O1` (stereo partly specified), the TGI amounted to 0.237 µM.

Turning to `COc1cc2c(cc1O)C1C(O)C(O)C=C3CCN(C2)C31` (stereo unspecified), the TGI was found to be 8.84 µM.

As for `CC(C)=CCc1c(O)ccc2ccc(=O)oc12`, the TGI was above 100 µM.

A further assay concerns P388 leukemia. Briefly: NCI tumour cell line growth inhibition, 48 h.
With `CCCC(O)C(NC(=O)CCl)C(=O)O` (stereo unspecified), the TGI is above 100 µM.

For `COc1cc(/C=C/C(=O)O)ccc1C(=O)OCc1ccccc1`, the TGI was above 100 µM.

Regarding `CC(C)=CCc1c(O)ccc2ccc(=O)oc12`, the TGI was above 100 µM.

The next assay concerns HOP-18 NSCLC. The experiment in a line: NCI tumour cell line growth inhibition, 48 h.
For `CC#C[P+](c1ccccc1)(c1ccccc1)c1ccccc1`, the TGI stood at 25.4 µM.

In turn, `CCCC(O)C(NC(=O)CCl)C(=O)O` (stereo unspecified) yielded a TGI above 100 µM.

`COc1cc(/C=C/C(=O)O)ccc1C(=O)OCc1ccccc1` registered a TGI above 100 µM.

`Cc1cccc(C(C)C)c1NC(=O)CC1Sc2ccccc2NC1=O` (stereo unspecified): the TGI was above 100 µM.

In the case of `COc1cccc2c1C(=O)c1c(O)c3c(c(O)c1C2=O)C[C@@](O)(C(=O)CO)C[C@@H]3OC1CC(N)C(OC)C(C)O1` (stereo partly specified), the TGI was 0.977 µM.

As for `COc1cc2c(cc1O)C1C(O)C(O)C=C3CCN(C2)C31` (stereo unspecified), the TGI was found to be 8.19 µM.

As to `CC(C)=CCc1c(O)ccc2ccc(=O)oc12`, the TGI was above 100 µM.

The next assay deals with DMS 273 small cell lung. Briefly: NCI tumour cell line growth inhibition, 48 h.
As to `CC#C[P+](c1ccccc1)(c1ccccc1)c1ccccc1`, the TGI stood at 10.6 µM.

Compound `CCCC(O)C(NC(=O)CCl)C(=O)O` (stereo unspecified) yielded a TGI above 100 µM.

`COc1cc(/C=C/C(=O)O)ccc1C(=O)OCc1ccccc1` had a TGI above 100 µM.

With `Cc1cccc(C(C)C)c1NC(=O)CC1Sc2ccccc2NC1=O` (stereo unspecified), the TGI is above 100 µM.

Compound `COc1cccc2c1C(=O)c1c(O)c3c(c(O)c1C2=O)C[C@@](O)(C(=O)CO)C[C@@H]3OC1CC(N)C(OC)C(C)O1` (stereo partly specified) showed a TGI of 1.4 µM.

`COc1cc2c(cc1O)C1C(O)C(O)C=C3CCN(C2)C31` (stereo unspecified) displayed a TGI of 8.24 µM.

`CC(C)=CCc1c(O)ccc2ccc(=O)oc12` showed a TGI above 100 µM.

The test system of another assay is P388/ADR leukemia. Briefly: NCI tumour cell line growth inhibition, 48 h.
Regarding `CCCC(O)C(NC(=O)CCl)C(=O)O` (stereo unspecified), the TGI was above 100 µM.

With `COc1cc(/C=C/C(=O)O)ccc1C(=O)OCc1ccccc1`, the TGI was above 100 µM.

With `CC(C)=CCc1c(O)ccc2ccc(=O)oc12`, the TGI was above 100 µM.

Another assay concerns XF 498 CNS. Briefly: NCI tumour cell line growth inhibition, 48 h.
`CC#C[P+](c1ccccc1)(c1ccccc1)c1ccccc1` displayed a TGI of 7.26 µM.

Turning to `CCCC(O)C(NC(=O)CCl)C(=O)O` (stereo unspecified), the TGI is above 100 µM.

`COc1cc(/C=C/C(=O)O)ccc1C(=O)OCc1ccccc1` displayed a TGI above 100 µM.

The compound `Cc1cccc(C(C)C)c1NC(=O)CC1Sc2ccccc2NC1=O` (stereo unspecified) gave a TGI above 100 µM.

Take `COc1cc2c(cc1O)C1C(O)C(O)C=C3CCN(C2)C31` (stereo unspecified): the TGI is 4.36 µM.
